# Data as given in patent US20240316000A1, “METHODS OF TREATMENT” (DIFFUSION PHARMACEUTICALS LLC, priority 2021, published 2024).
# Columns and labels:
# [1] = tested on: healthy volunteers exercising at altitude; test: Safety assessment in the altitude study; type: in vivo, human; conditions: all doses tested; no serious adverse events reported
# Excerpt: Adverse Events (AE), and Serious Adverse Events (SAE) will be reported per protocols. Laboratory values (complete blood count [CBC], basic metabolic panel [BMP] HIV, HBsAg, HCVAb), vital signs (blood pressure, heart rate, respiratory rate, temperature), and oxygen saturation (SpO2) will be monitored.
# healthy volunteers = test: Safety assessment in the tcpO2 study (adverse events, vital signs); type: in vivo, human
# Description: Vital signs during the treatment and evaluation period are assessed at 10, 30, and 60 minutes post-study drug dosing. Adverse events are assessed throughout.
# [2] = tested on: patients with peripheral artery disease; conditions: 0.25 mg/kg to 2.0 mg/kg tested, cited from earlier work
# [3] = Population pharmacokinetics of TSC in plasma (LC-MS/MS, two-compartment model); type: in vivo, human; design: V2 / V1: unit not given here
# Description: Prior to and following study drug administration, PK samples are obtained at the below intervals: • Pre-dose (within 10 minutes prior to injection) • 1 minute post end of injection (+1 minute) • 10 minutes post end of injection (±1 minute) • 30 minutes post end of injection (±1 minute) • 1.5 hours post end of injection (±2 minutes)
# Plasma is assayed for TSC using LC-MS/MS using prednisone as an internal standard. Sample pre-treatment involves a protein precipitation extraction procedure. Lower limit of quantitation is 10 ng/ml.
# For 19 of the 24 subjects included in the PK analysis, TSC concentration (Cp: Concentration in Plasma.) in the 1-minute sample is smaller (often many-fold) compared to the 10-minute sample, most likely a result of sampling too soon after the dose is administered. As a result, all 1-minute samples are excluded from population PK analysis.
# Based on previous analyses and examination of drug concentration profiles, a two-compartment model with no covariates fit the data well. To determine whether the systemic parameters should be scaled for body size, three scaling approaches are evaluated: scaling all parameters by weight, allometric scaling (clearances scaled by weight raised to the 0.75 power; distribution volumes scaled by weight), and scaling all parameters by weight raised to an estimated power. The weight normalized model is preferred statistically (evaluated by the decrease in the objective function [similar to a sum of squares]) and by graphics. […] A model is evaluated in which clearance varied as a linear function of dose: […]
# [4] = Solubility of TSC in water with gamma-cyclodextrin; type: physicochemical
# [5] = Absorption after intramuscular injection of TSC with gamma cyclodextrin; type: in vivo; conditions: injected intramuscularly with gamma cyclodextrin; rats
# [6] = population estimate, multiplied by SCALE (WT/75)
compound,measurement,setting,value
"CC(/C=C/C=C(\C)C(=O)[O-])=C\C=C\C=C(C)\C=C\C=C(/C)C(=O)O.[Na+] [TSC, trans sodium crocetinate]",Safety and tolerability,[1],safe and well tolerated at all doses tested
same,Serious adverse events or withdrawals,healthy volunteers; 30 subjects,No subjects experience a serious adverse event
same,Number of treatment-emergent adverse events determined to be drug-related,"healthy volunteers; of nine events, all mild in intensity",five
same,Subjects with treatment-emergent adverse events,"healthy volunteers; seven of the 30 subjects (TSC and placebo cohorts), nine events overall",23.3%
same,Safety and tolerability,healthy volunteers; single IV bolus 0.5-2.5 mg/kg,safe and well tolerated
same,Serious adverse events or dose-limiting toxicities,healthy volunteers; up to and including the 2.5 mg/kg iv dose,no serious adverse events or dose-limiting toxicities
same,Dose with greatest increase in claudication onset time,[2],0.25 mg/kg
same,Dosing arm with peak increase in peak walking time,[2]; after 5 days of treatment,1.50 mg/kg
same,Clearance as a function of dose,[3]; IV bolus 0.5-2.5 mg/kg,clearance decreases at escalating doses
same,TSC plasma concentrations as a function of dose,"[3]; IV bolus 0.5-2.5 mg/kg, highest at 2.5 mg/kg",increase with escalating dose
same,clearance,"[3]; human, plasma, population estimate, single IV bolus 0.5-2.5 mg/kg, multiplied by SCALE (WT/75) and FCTR 1-0.53677 · (DOSE/1.5)",137 mL/min
same,Distribution Clearance,[3]; [6],161.176 · SCALE L/day
same,V1,[3]; [6],4.277 · SCALE
same,V2,[3]; [6],46.61 · SCALE
same,TSC content of aqueous solutions,[4]; TSC and gamma-cyclodextrin,≤ 44 milligrams of TSC per ml of solution
same,TSC content of solutions,[4]; formulated with a cyclodextrin and mannitol,over 20 mg TSC/ml of solution
same,Absorption into the blood stream,[5],Absorption is quick
